The values below come from patent publication US12480163B2, “Compositions and methods for identification assessment, prevention, and treatment of Ewing sarcoma using TP53 dependency biomarkers and modulators” (Dana-Farber Cancer Institute, Inc., priority 2018, dated 2025).

“Also recorded” adds a separate entry of the source.

Assay [1] has as its system TP53 wild-type Ewing sarcoma cell lines. Put plainly: Annexin V staining, flow cytometry (cell death). The assay is classed as cell-based. The conditions noted are these: TC32 and CHLA258; 2 d ATSP-7041 (2 μM, 4 μM) or P5091 (6.5 μM, 8 μM), 3 d GSK2830371 (15 μM). The method, then:
Cell death was measured using flow cytometric analysis of Annexin V staining according to the manufacturer's instructions (eBioscience). Data analysis was completed using Flowjo 7.6 software (Treestar).

A further assay addresses T1, p53-MDM4 complex (Homo sapiens, UniProt O15151).
T1 construct: endogenous in cells; host or cells: TC32 Ewing sarcoma cells (TP53 wild-type), lysed in NP-40 buffer
T1 sequence (O15151 1-490): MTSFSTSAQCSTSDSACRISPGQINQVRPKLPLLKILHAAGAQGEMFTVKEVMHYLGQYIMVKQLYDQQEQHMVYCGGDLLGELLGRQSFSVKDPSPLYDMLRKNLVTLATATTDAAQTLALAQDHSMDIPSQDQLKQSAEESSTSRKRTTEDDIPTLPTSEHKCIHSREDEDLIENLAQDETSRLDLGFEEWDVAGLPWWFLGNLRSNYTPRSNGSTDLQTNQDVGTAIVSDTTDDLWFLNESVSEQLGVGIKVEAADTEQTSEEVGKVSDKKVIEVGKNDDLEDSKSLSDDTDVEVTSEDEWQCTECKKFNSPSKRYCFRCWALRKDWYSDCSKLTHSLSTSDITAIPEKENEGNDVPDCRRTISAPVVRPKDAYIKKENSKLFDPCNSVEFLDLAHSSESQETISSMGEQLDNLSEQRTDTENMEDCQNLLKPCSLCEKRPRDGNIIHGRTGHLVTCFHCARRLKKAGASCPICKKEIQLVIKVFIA
As to the kind of experiment: MDM4 immunoprecipitation from TC32 cell lysates, p53 and MDM4 Western blot. Format: binding. The conditions noted are these: TC32 lysates after RG7388 pre-treatment, 20 μM compound. Here is the method: g. Immunoprecipitation Experiments
Five million TC32 cells were treated with either 10 μM RG7388 or vehicle control for 4 h. Cells were lysed in buffer A (150 mM NaCl, 50 mM Tris, and 0.5% NP-40, pH 7.4) and combined with anti-MDM4 antibody (A300-287A; Bethyl Laboratories) in the presence of 20 μM RG7388, ATSP-7041, or vehicle control in a total volume of 1 ml, rotating at 4° C. for 16 h. Subsequently, 50 μl washed Protein AG beads (sc-2003; Santa Cruz) were added and the mixture was incubated for 1 h rotating at 4° C. Beads were washed three times in buffer A, and protein complexes were eluted by boiling in NuPage® LDS Sample Buffer (NP0007; Invitrogen) supplemented with DTT. Samples were analyzed by Western blot with antibodies against p53 DO-1 (sc-126; Santa Cruz) and MDM4 (A300-287A; Bethyl Laboratories).

Assay [2] relates to TC32, TC138, and CHLA258 cells. As to the kind of experiment: Drug synergy analysis, Chou-Talalay combination index for Loewe additivity. The assay is classed as cell-based. The conditions noted are these: CI<1 synergistic; for combination index, ATSP-7041 combined with P5091: CI>1 antagonistic. Here is the method: Cell viability was assessed using the CellTiter-Glo® Luminescent Cell Viability Assay (Promega). Viability assays were performed after Ewing sarcoma cell lines were infected with sgRNAs targeting TP53, MDM2, MDM4, PPM1D, or USP7 or treated with ATSP-7041, ATSP-7342, GSK2830371, P5091, XL-188, or vehicle control.
k. Drug Synergy Analysis Chou-Talalay Combination Index for Loewe Additivity
Loewe Additivity is a dose-effect approach that estimates the effect of combining two drugs based on the concentration of each individual drug that produces the same quantitative effect (Goldoni and Johansson (2007) Toxicol. In Vitro 21:759-769). […] They introduced the combination index (CI) scores to estimate the interaction between the two drugs. If CI<1, the drugs have a synergistic effect, and if CI>1, the drugs have an antagonistic effect. CI=1 means the drugs have an additive effect.

For a further assay, the system named is PDX tumor tissues. Put plainly: Pharmacodynamics study in PDX tumor tissue (Western blot, quantitative PCR). Format: in vivo, mice. To be noted: PDX HSJD-ES-002, three doses 30 mg/kg q.o.d. The method, then: Whole-cell lysates were extracted in cell lysis buffer (Cell Signaling) supplemented with EDTA-free protease inhibitors and PhosSTOP™ phosphatase inhibitors (Roche). Western immunoblotting was performed using standard techniques. Primary antibodies used included anti-MDM2 (ab178938; Abcam), anti-MDM2 (86934; Cell Signaling), anti-MDM4 (A300-287A; Bethyl Laboratories), anti-p53 (2527S; Cell Signaling), anti-p21 (2946S; Cell Signaling), anti-Vinculin (18058; Abcam), anti-Wip1 (A300-664A; Bethyl Laboratories), anti-pSer15-p53 (9284; Cell Signaling), anti-USP7 (A300-033A; Bethyl Laboratories), and anti-Tubulin (cp06; CalBiochem).
RNA was extracted from cells with the RNeasy® kit and on-column DNA digestion (Qiagen). cDNA was prepared using M-MLV reverse transcription (ThermoFisher Scientific). TaqMan™ Gene Expression Master Mix (Applied Biosystems) was used per the manufacturer's protocol. TaqMan™ probes included RPL13A (Hs04194366_g1; ThermoFisher Scientific), CDKNIA (Hs00355782_m1; Thermo Fisher Scientific), and MDM2 (Hs01066930_m1; ThermoFisher Scientific). Data were collected in triplicate and analyzed using the ΔΔCT method.
For pharmacodynamics studies, tumor xenografts were established in six nude female mice by implanting three million TC32 cells or PDX tumor fragments into the right flank. Animals were randomized to either ATSP-7041 (n=3) or vehicle treatment (n=3). […]

Where [3] appears, read: TC32, TC138, CHLA258, 3 d, CI=1 additive.

For the molecule `CC(=O)N[C@@H](CC(C)C)C(=O)N[C@H](C(=O)N[C@@H](Cc1ccccc1)C(=O)N[C@]1(C)CCCCCCC=CCCC[C@@](C)(C(=O)N[C@@H](CO)C(=O)N[C@@H](C)C(=O)N[C@@H](C)C(N)=O)NC(=O)[C@H](CC2CCC2)NC(=O)[C@H](CCC(N)=O)NC(=O)[C@H](C)NC(=O)[C@H](Cc2c[nH]c3ccccc23)NC(=O)[C@H](Cc2ccc(O)cc2)NC(=O)[C@H](CCC(=O)O)NC1=O)[C@@H](C)O` [ATSP-7041, Ac-Leu17-Thr-Phe-cyclo(R8-Glu-Tyr-Trp-Ala-Gln-Cba-S5)-Ser-Ala-Ala30-NH2], the “cell death measured by Annexin V staining” value in assay [1] is recorded as “triggers cell death; also recorded: induction of cell death”. Further, on p53-MDM4 complex, the “disruption of p53-MDM4 complex (MDM4 immunoprecipitation)” value is on record as “partial disruption of p53-MDM4 complex; also recorded: decreased the level of p53-MDM4 interaction”. Besides, the “combination index, ATSP-7041 combined with P5091” value in assay [2] (CHLA258, 5 d, CI=1 additive) is reported as “additivity”. Besides, in assay [2] (setting [3]), the “combination index, ATSP-7041 combined with doxorubicin” value is on record as “additivity or synergy”; the “combination index, ATSP-7041 combined with etoposide” value is listed as “additivity or synergy”; the “combination index, ATSP-7041 combined with vincristine” value is “additivity or synergy”. The “combination index, ATSP-7041 combined with GSK2830371” value in assay [2] (TC32, TC138, and CHLA258, 3 d) is reported as “strong synergy”. In assay [2] (TC32 and TC138, 5 d, CI=1 additive), the “combination index, ATSP-7041 combined with P5091” value is “synergy”. For the same molecule, the “p53 pathway protein levels in tumor tissue” value in the assay with PDX tumor tissues (8 h after last dose) is “increase of MDM2, p53, and p21 protein levels; also recorded: increased intratumoral p53 and p21 protein levels”. The “MDM2 and p21 mRNA levels in tumor tissue” value in the assay with PDX tumor tissues (quantitative PCR) is “increase of MDM2 mRNA levels; also recorded: increase of p21 mRNA levels; also recorded: increased MDM2 and p21 mRNA levels”.
